“Also recorded” adds a separate entry of the source. Counter-ions that a name gives are not always drawn. Like-named read-outs stand apart in the source and are kept apart here.
What was measured:
L1210 cells [1] = assay: Polyamine pool analysis in L1210 cells; format: cell-based, murine; conditions: for activity at 100 µM / activity at 500 µM / activity at 15 µM / activity at 75 µM / activity at 2 µM / activity at 10 µM: Mus musculus, L1210, 48 h, % of untreated control; for Analogue: intracellular amount, 48 hours
Protocol: The following guidelines were adopted for studying the impact of the analogues on polyamine pools (Table 2). The measurements were made after a 48-hour exposure to the analogue, and two different concentrations of analogue were evaluated in each case.
(§1) The cells were washed twice with cold RPMI-1640, and the pellet was treated with 0.6 N HClO4 (1 ml/10^7 cells). Polyamine contents of the perchloric acid extracts were quantitated by HPLC of the DANSYL derivatives [Bergeron et al, J. Med. Chem., Vol. 37, supra].

[2] = test system: polyamine transport apparatus; assay: Competitive uptake determination: inhibition of [3H]spermidine transport into L1210 cells; format: cell-based, murine; conditions: analogue inhibition of spermidine transport
Protocol: The ability of the norspermidines, spermidines, homospermidines, 4,5- and 5,5-triamines to compete with radiolabeled SPD for uptake was evaluated (Table 1). The general trend is that the terminally alkylated triamines have higher Ki values than the unalkylated triamines and are thus less easily taken up by the cell. […] This is not completely true with the norspermidines and the 5,5 triamines. The relationship holds with methyl and ethyl but not for the propyl of the latter two systems. Finally, the number of methylenes separating the amines plays a role in determining polyamine uptake properties. In general the effectiveness with which the analogues compete for uptake is spermidines≈homospermidines>4,5 triamines>5,5 triamines>norspermidine.
The polyamine derivatives were studied for their ability to compete with [^3H]-SPD for uptake into L1210 cells [Bergeron et al, J. Med. Chem., Vol. 37, supra]. Lineweaver-Burk plots indicated a simple competitive inhibition with respect to SPD.

[3] = test system: spermidine/spermine acetyltransferase (SSAT); assay: SSAT activity in treated L1210 cells; format: cell-based, murine; conditions: L1210, 10 μM at 48 hours (triamine analogues)
From the text: Spermidine/spermine N^1-acetyltransferase activity was based on quantitation of [^14C]-N^1-acetylspermidine formed by acetylation of SPD with [^14C] acetyl coenzyme A according to the method of Libby et al [Biochem. Pharmacol., Vol. 38, supra]. Cells treated with DENSPM were positive controls.

L1210 cells [4] = assay: Metabolic transformation of polyamine analogues by L1210 cells; format: in vitro ADME, murine; conditions: 48 hours
Protocol: as §1

L1210 cells [5] = assay: L1210 growth inhibition, IC50 determination; format: cell-based, murine
Protocol: Murine L1210 leukemia cells (ATCC CCL 219) were maintained in logarithmic growth in RPMI-1640 medium containing 10% fetal calf serum or a semi-synthetic equivalent, NuSerum, 2% HEPES-MOPS buffer and 1 mM aminoguanidine.

[6] = test system: S-adenosylmethionine decarboxylase (AdoMetDC); assay: AdoMetDC activity in treated L1210 cells; format: cell-based, murine; conditions: L1210, 1 μM at 6 hours
Protocol: (§2) On the basis of these studies, it was elected to evaluate the impact of the triamines on ODC and AdoMetDC at 4 and 6 hours, respectively.
(§3) ODC and AdoMetDC activities were determined as ^14CO2 released from [^14C]-carboxyl-labeled L-ornithine [Seely et al, “Ornithine Decarboxylase (Mouse Kidney),” Methods Enzymol., Vol. 94, pages 158-161 (1983)] or S-adenosyl-L-methionine [Pegg et al, “S-Adenosylmethionine Decarboxylase (Rat Liver),” Methods Enzymol., Vol. 94, pages 234-239 (1983)], respectively. Included in each assay were untreated L1210 cells as controls, as well as cells treated with DEHSPM, a drug having a known reproducible effect on each enzyme, as positive controls.

[7] = test system: ornithine decarboxylase (ODC); assay: ODC activity in treated L1210 cells; format: cell-based, murine; conditions: L1210, 1 μM at 4 hours
Protocol: as §2, §3

[8] = Mus musculus, L1210, 48 h, L1210, 48 hour exposure, read-out: IC50 48 hour
[9] = Mus musculus, L1210, 96 h, L1210, 96 hour exposure, read-out: IC50 96 hour

| Structure (SMILES) | activity at 100 µM (L1210 cells [1]; 100 μM, read-out: Put) [%] | activity at 100 µM (L1210 cells [1]; 100 μM, read-out: Spd) [%] | activity at 100 µM (L1210 cells [1]; 100 μM, read-out: Spm) [%] | activity at 500 µM (L1210 cells [1]; 500 μM, read-out: Put) [%] | activity at 500 µM (L1210 cells [1]; 500 μM, read-out: Spd) [%] | activity at 500 µM (L1210 cells [1]; 500 μM, read-out: Spm) [%] | Analogue (L1210 cells [1]; 100 μM) [nmol/10^6 cells] | Analogue (L1210 cells [1]; 500 μM) [nmol/10^6 cells] | Ki [2] [µM] | SSAT activity, percent of untreated control [3] | IC50 (L1210 cells [5]; [8]) [µM] | IC50 (L1210 cells [5]; [9]) [µM] | AdoMetDC activity, percent of untreated control [6] | ODC activity, percent of untreated control [7] | Parent drug as % of total drug in the cell (L1210 cells [4]; 100 μM analogue) [%] | Parent drug in L1210 cells (L1210 cells [4]; 100 μM analogue) [pmols/10^6] | other results |
| --- | --- | --- | --- | --- | --- | --- | --- | --- | --- | --- | --- | --- | --- | --- | --- | --- | --- |
| CCCNCCCCNCCCCNCCC [DPHSPD, N^1,N^9-Dipropylhomospermidine Trihydrochloride] | 0 | 19 | 144 | 0 | 7 | 111 | 3.12 | 3.68 | 67 | 420% of untreated control | > 100 | 6 | 123% of untreated control | 86% of untreated control | – | – | Elaboration to tetraamine (result in words) (L1210 cells [4]; 500 μM analogue): elaboration of N-Monoalkyl [4,4]; Parent drug as % of total drug in the cell (L1210 cells [4]; 500 μM analogue): 87.7%; Parent drug in L1210 cells (L1210 cells [4]; 500 μM analogue): 3149 pmols/10^6 |
| CCCNCCCNCCCNCCC [DPNSPD, N^1,N^7-Dipropylnorspermidine Trihydrochloride] | 70 | 76 | 96 | 68 | 71 | 102 | 0.49 | 1.24 | 125 | 220% of untreated control | > 100 | 60 | 99% of untreated control | 100% of untreated control | 57.7 | 404 | – |
| CCCNCCCNCCCCN [MPSPD(N1), N^1-Propylspermidine Trihydrochloride] | 0 | 25 | 90 | 0 | 15 | 72 | 3.97 | 4.95 | 3 | 1200% of untreated control | > 100 | 20 to 35 | 56% of untreated control | 18% of untreated control | 93.9 | 4238 | – |
| CNCCCCNCCCNC [DMSPD, N^1,N^8-Dimethylspermidine Trihydrochloride] | 0 | 5 | 58 | 0 | 0 | 54 | 4.96 | 4.89 | 5.1 | 270% of untreated control | > 100 | 1.5 to 1.8 | 68% of untreated control | – | 100 | 5000 | N-Monodealkylation (result in words) (L1210 cells [4]; 100 μM analogue): no N-demethylation; ODC activity, percent of untreated control ([7]; Trihydrochloride): 22% of untreated control |
| CNCCCCCNCCCCCNC [DM(5,5), 2,8,14-Triazapentadecane Trihydrochloride] | – | – | – | – | – | – | – | – | 133 | 90% of untreated control | 15 | 0.4 | 97% of untreated control | 105% of untreated control | – | – | activity at 15 µM (L1210 cells [1]; 15 μM, read-out: Put): 0%; activity at 15 µM (L1210 cells [1]; 15 μM, read-out: Spd): 33%; activity at 15 µM (L1210 cells [1]; 15 μM, read-out: Spm): 115%; activity at 75 µM (L1210 cells [1]; 75 μM, read-out: Put): 0%; activity at 75 µM (L1210 cells [1]; 75 μM, read-out: Spd): 20%; activity at 75 µM (L1210 cells [1]; 75 μM, read-out: Spm): 101%; Analogue (L1210 cells [1]; 15 μM): 2.56 nmol/10^6 cells; Analogue (L1210 cells [1]; 75 μM): 3.61 nmol/10^6 cells; N-Monodealkylation (result in words) (L1210 cells [4]; 15 μM analogue): no N-demethylation; Parent drug as % of total drug in the cell (L1210 cells [4]; 15 μM analogue): 100%; Parent drug in L1210 cells (L1210 cells [4]; 15 μM analogue): 2560 pmols/10^6 |
| CCCNCCCCNCCCN [MPSPD(N8), N^8-Propylspermidine Trihydrochloride] | 0 | 33 | 103 | 0 | 16 | 95 | 3.52 | 5.16 | 8.5 | 500% of untreated control | > 100 | 50 to 60 | 64% of untreated control | 14% of untreated control | 99.3 | 3549 | Elaboration to tetraamine (result in words) (L1210 cells [4]; 100 μM analogue, listed as N8-MP-[4,3], Trihydrochloride): no evidence of a tetraamine elaboration metabolite; also recorded: no elaboration of N8-Alkyl [4,3] |
| CNCCCCCNCCCCNC [DM(4,5), 2,7,13-Triazatetradecane Trihydrochloride] | – | – | – | – | – | – | – | – | 21 | 130% of untreated control | 2 to 6 | 0.11 to 0.12 | 71% of untreated control | 56% of untreated control | – | – | activity at 2 µM (L1210 cells [1]; 2 μM, read-out: Put): 0%; activity at 2 µM (L1210 cells [1]; 2 μM, read-out: Spd): 33%; activity at 2 µM (L1210 cells [1]; 2 μM, read-out: Spm): 112%; activity at 10 µM (L1210 cells [1]; 10 μM, read-out: Put): 0%; activity at 10 µM (L1210 cells [1]; 10 μM, read-out: Spd): 18%; activity at 10 µM (L1210 cells [1]; 10 μM, read-out: Spm): 111%; Analogue (L1210 cells [1]; 2 μM): 2.79 nmol/10^6 cells; Analogue (L1210 cells [1]; 10 μM): 5.36 nmol/10^6 cells; N-Monodealkylation (result in words) (L1210 cells [4]; 2 μM analogue): no N-demethylation; Parent drug as % of total drug in the cell (L1210 cells [4]; 2 μM analogue): 100%; Parent drug in L1210 cells (L1210 cells [4]; 2 μM analogue): 2790 pmols/10^6; IC50 (L1210 cells [5]; L1210, 48 hour exposure, Trihydrochloride, read-out: IC50 48 hour): 2 µM |
| CCNCCCNCCCNCC [DENSPD, N^1,N^7-Diethylnorspermidine Trihydrochloride] | 0 | 17 | 74 | 0 | 6 to 15 | < 50 | 3.67 | 3.77 | 250 | 780% of untreated control | > 100 | 10 | 45% of untreated control | 80% of untreated control | – | – | Parent drug as % of total drug in the cell (L1210 cells [4]; 500 μM analogue): 90.7%; Parent drug in L1210 cells (L1210 cells [4]; 500 μM analogue): 3761 pmols/10^6 |

Reference: patent US20020045780A1, “Biologically active spermidine analogues, pharmaceutical compositions and methods of treatment” (priority 1997, published 2002)
